Consider four compounds from BindingDB's records for doi:10.1016/s0960-894x(02)00699-6 (Sapienza University of Rome, 2002).

Each structure is given as a SMILES string.

For the experiment, the target named is Diamine oxidase [copper-containing] (Sus scrofa). Kind of experiment: Inhibitory activity against Swine kidney diamine oxidase (SKDAO).
The Ki is a dissociation constant, usually derived from enzyme kinetics or from competition with a known ligand. Low readings indicate higher affinity, high ones lower affinity. In the case of `CC(=O)N1N=C(c2ccc(O)cc2O)CC1c1cccc(C)c1` (centres undefined) [1-[3-(2,4-Dihydroxy-phenyl)-5-m-tolyl-4,5-dihydro-pyrazol-1-yl]-ethanone], affinity was put at a Ki of 25 µM.
On to `CC(=O)N1N=C(c2ccc(O)cc2O)CC1c1ccccc1C` (centres undefined) [1-[3-(2,4-Dihydroxy-phenyl)-5-o-tolyl-4,5-dihydro-pyrazol-1-yl]-ethanone], for which the affinity, expressed as Ki, was 100 µM.
In the case of `CC(=O)N1N=C(c2ccccc2O)CC1c1cccc(C)c1` (centres undefined) [1-[3-(2-Hydroxy-phenyl)-5-m-tolyl-4,5-dihydro-pyrazol-1-yl]-ethanone], the Ki was determined as 8 µM.
Then `CC(=O)N1N=C(c2ccccc2O)CC1c1ccccc1C` (centres undefined) [1-[3-(2-Hydroxy-phenyl)-5-o-tolyl-4,5-dihydro-pyrazol-1-yl]-ethanone], with 5.5 µM.
